Legend:
[1] = Dynamic vapor sorption (DVS) isotherm of the solid form; format: physicochemical
Method: DVS was measured using a SMS (Surface Measurement Systems) DVS Intrinsic. The relative humidity at 25° C. was calibrated against deliquescence point of LiCl, Mg(NO3)2 and KCl.
To investigate the solid form stability as a function of humidity, a DVS isotherm plot of Form A was collected at 25° C.

[2] = Solid form stability on heating and cooling, checked by XRPD; format: physicochemical; details: cooling down to room temperature under nitrogen protection, re-exposure to ambient conditions
Method: A PANalytical Empyrean X-ray powder diffractometer was used to collect X-ray diffraction patters as described herein. The diffraction peak position was calibrated using a PANalytical Si reference standard disc.
Form D was generated via vacuum dry of Form X. The XRPD pattern for Form D is provided in FIG. 3A and characteristic peaks are summarized in Table 20. […] (peak temperature) before a possible melting peak at 204.0° C. (peak temperature).
Form E was generated via liquid diffusion in BuOH/n-heptane of Form A at RT. […] (peak temperature) before possible melting peak at 203.1° C. (peak temperature). […] As evidenced by the presence of n-butanol methylene proton at ~3.7 ppm (1.5:1, molar ratio of n-butanol/API) detected by ^1H NMR in FIG. 4D, Form E was deemed to be an n-butanol solvate.

For `C[C@H](CC[C@](C)(O)C(F)(F)F)[C@H]1CC[C@H]2[C@@H]3CC=C4C[C@@](C)(O)CC[C@]4(C)[C@H]3CC[C@]12C` [Form A], the “water uptake (DVS)” value ([1]; 25° C./80% RH) was 0.05%, the “form change after DVS test (XRPD overlay before and after)” value ([1]; DVS isotherm collected at 25° C.) was “no form change” and the hygroscopicity ([1]; from DVS at 25° C./80% RH) was “non-hygroscopic”.
With `C[C@H](CC[C@](C)(O)C(F)(F)F)[C@H]1CC[C@H]2[C@@H]3CC=C4C[C@@](C)(O)CC[C@]4(C)[C@H]3CC[C@]12C` [Form D] the “solid form after heating (XRPD)” value ([2]; heating to 150° C.) was “converted to Form A”.
In the case of `C[C@H](CC[C@](C)(O)C(F)(F)F)[C@H]1CC[C@H]2[C@@H]3CC=C4C[C@@](C)(O)CC[C@]4(C)[C@H]3CC[C@]12C` [Form E], the “solid form after heating (XRPD)” value ([2]; heating to 140° C.) is reported as “converted to Form B”.

— patent publication US20260258073A1, “CRYSTALLINE FORMS OF A NEUROACTIVE STEROID” (SAGE THERAPEUTICS, INC., priority 2022, published 2026)
